Where “and” joins values, the source holds several entries; their conditions need not be identical. Equal values may be shown once. Read-outs that look alike come from different tables or passages of the source.
Tests used:
CYP2A6 = biological target: T1, CYP2A6 (Homo sapiens, UniProt P11509); experiment: Inhibition of recombinant CYP2A6 (probe coumarin); type: in vitro ADME
T1 sequence (P11509 1-494): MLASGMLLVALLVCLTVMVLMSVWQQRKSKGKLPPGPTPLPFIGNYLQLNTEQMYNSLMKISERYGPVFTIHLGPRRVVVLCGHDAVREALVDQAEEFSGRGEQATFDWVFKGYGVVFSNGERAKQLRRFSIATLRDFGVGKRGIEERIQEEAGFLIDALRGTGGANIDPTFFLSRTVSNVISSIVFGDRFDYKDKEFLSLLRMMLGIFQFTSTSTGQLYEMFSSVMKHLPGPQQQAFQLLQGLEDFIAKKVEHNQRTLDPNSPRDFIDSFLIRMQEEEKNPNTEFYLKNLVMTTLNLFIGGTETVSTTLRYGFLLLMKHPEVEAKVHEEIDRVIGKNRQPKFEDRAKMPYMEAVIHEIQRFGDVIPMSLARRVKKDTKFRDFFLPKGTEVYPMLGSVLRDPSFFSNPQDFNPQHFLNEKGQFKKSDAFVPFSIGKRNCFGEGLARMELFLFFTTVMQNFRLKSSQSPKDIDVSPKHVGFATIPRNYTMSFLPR
Description: (§1) In this study, phenacetin (100 μM), coumarin (100 μM), bupropion (100 μM), paclitaxel (60 μM), tolbutamide (200 μM), mephenytoin (100 μM), chlorzoxazone (200 μM) and nifedipine (40 μM) have been used as the probe substrates for CYP1A2, 2A6, 2B6, 2C8, 2C9, 2C19, 2E1 and 3A4, respectively.

CYP2C9 = CYP2C9 (Homo sapiens, UniProt P11712); experiment: Inhibition of recombinant CYP2C9 (probe tolbutamide); type: in vitro ADME
Description: as §1

[1] = Urinary (renal) excretion in rats after a 30-min infusion of Kang-Ai injection; type: in vivo, Sprague–Dawley rats; settings: Kang-Ai injection 6 mL/kg iv; for CL renal: male, Sprague-Dawley, urine and plasma, rat, read-out: CLR (renal excretory clearance) (converted); for fe-U,0–12h (fraction of dose excreted into urine): rat urine 0–12 h; for fraction of dose excreted unchanged via renal plus hepatobiliary excretion (sum of fe-U and fe-B): rat urine + bile, 0–12 h
Outline: (§2)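 Urine collected in metabolic cages at 0–4, 4–8, 8–12 h and bile at 0–3, 3–6, 6–9, 9–12 h after infusion start, weighed and frozen at −80 °C. Non-compartmental analysis; CLR and CLB as cumulative urinary or biliary amount divided by plasma AUC0-∞, fe-U and fe-B as cumulative amount/dose; mean ± SD (n = 3).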

[2] = Biliary (hepatobiliary) excretion in rats after a 30-min infusion of Kang-Ai injection; type: in vivo, Sprague–Dawley rats; settings: rat bile 0–12 h; Kang-Ai injection 6 mL/kg iv
Outline: as §2

CYP3A4 = CYP3A4 (Homo sapiens, UniProt P08684); experiment: Inhibition of recombinant CYP3A4 (probe nifedipine); type: in vitro ADME
Description: as §1

[3] = Stability tests of analytes in rat plasma QC samples; type: in vitro ADME; settings: rat plasma
Description: […] The dilution integrity was investigated by analyzing six replicate samples with each analyte, and each analyte were diluted 10-fold with blank rat matrix. Furthermore, the diluted samples were analyzed using freshly prepared calibration curve to calculate RE and RSD, which should be no more than ± 15% as criterion.

[4] = Plasma pharmacokinetics in rats after a 30-min intravenous infusion of Kang-Ai injection; type: in vivo, Sprague–Dawley rats; settings: male, Sprague-Dawley; for clearance: read-out: CLtot, p (converted); for half-life: read-out: t1/2 (converted); for Cmax: read-out: Cmax
Outline: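 Fasted male Sprague–Dawley rats (250 ± 20 g) got a single 30-min tail-vein infusion of Kang-Ai injection at 6 mL/kg. Jugular blood was sampled from 5 min to 12 h for plasma. Parameters came from non-compartmental analysis (trapezoidal AUC), n = 3.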

[5] = plasma, rat, 30-min iv infusion of Kang-Ai injection 6 mL/kg, Table 1 unit
[6] = plasma, rat, 30-min iv infusion of Kang-Ai injection 6 mL/kg, Table 1 unit, read-out: VSS
[7] = rat plasma, 30-min iv infusion of Kang-Ai injection 6 mL/kg

Chain of CYP2C9 (P11712 whole entry): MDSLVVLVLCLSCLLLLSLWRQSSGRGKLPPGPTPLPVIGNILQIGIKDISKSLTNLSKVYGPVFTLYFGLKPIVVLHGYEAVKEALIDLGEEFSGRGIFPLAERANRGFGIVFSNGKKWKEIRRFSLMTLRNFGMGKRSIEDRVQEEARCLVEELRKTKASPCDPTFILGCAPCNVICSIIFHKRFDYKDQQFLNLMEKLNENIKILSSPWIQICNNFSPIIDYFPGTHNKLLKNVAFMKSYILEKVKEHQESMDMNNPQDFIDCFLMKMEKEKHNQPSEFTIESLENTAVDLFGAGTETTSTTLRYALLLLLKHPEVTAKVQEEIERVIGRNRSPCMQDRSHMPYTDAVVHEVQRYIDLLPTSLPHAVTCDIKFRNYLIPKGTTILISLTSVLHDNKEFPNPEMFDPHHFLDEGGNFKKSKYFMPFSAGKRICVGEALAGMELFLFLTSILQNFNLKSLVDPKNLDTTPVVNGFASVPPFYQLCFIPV
Chain of CYP3A4 (P08684 whole entry): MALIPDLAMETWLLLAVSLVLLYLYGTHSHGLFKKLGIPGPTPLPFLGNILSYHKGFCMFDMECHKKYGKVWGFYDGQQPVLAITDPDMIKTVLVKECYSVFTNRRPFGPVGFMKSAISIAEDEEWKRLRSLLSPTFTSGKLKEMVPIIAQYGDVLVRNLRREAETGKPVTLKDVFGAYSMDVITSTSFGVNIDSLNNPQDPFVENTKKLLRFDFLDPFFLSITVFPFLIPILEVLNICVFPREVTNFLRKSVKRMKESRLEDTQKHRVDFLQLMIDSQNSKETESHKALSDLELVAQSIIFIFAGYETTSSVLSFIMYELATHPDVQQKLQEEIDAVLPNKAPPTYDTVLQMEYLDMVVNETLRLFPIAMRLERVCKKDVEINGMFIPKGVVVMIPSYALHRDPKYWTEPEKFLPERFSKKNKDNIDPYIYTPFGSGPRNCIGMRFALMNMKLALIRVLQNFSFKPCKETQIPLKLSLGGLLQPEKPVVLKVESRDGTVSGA

O=C1CCC[C@@H]2[C@H]3CCCN4CCC[C@@H](CN12)[C@@H]34 [Compound A1, Matrine]
IC50 (CYP2A6): > 100 µM
IC50 (CYP2C9): > 100 µM
CL renal [1]: 0.015 mL/min
fe-U,0–12h (fraction of dose excreted into urine) [1]: 57.40% and 57.40 ± 4.88%
fraction of dose excreted unchanged via renal plus hepatobiliary excretion (sum of fe-U and fe-B) [1]: exceeded 90%
fe-B,0–12h (fraction of dose excreted into bile) [2]: 36.55% and 36.55 ± 4.24%
IC50 (CYP3A4): > 100 µM
At -80 °C for 48 h, Mean±SD ([3]; nominal conc. 20 nM): 21.33 ± 1.64 nM
At -80 °C for 48 h, RE ([3]; nominal conc. 20 nM): 10.69%
Extracted samples at 8 °C for 18 h, Mean±SD ([3]; nominal conc. 20 nM): 21.75 ± 0.99 nM
Extracted samples at 8 °C for 18 h, RE ([3]; nominal conc. 20 nM): 13.23%
Short-term stability at room temperature for 6 h, Mean±SD ([3]; nominal conc. 20 nM): 20.84 ± 0.75 nM
Short-term stability at room temperature for 6 h, RE ([3]; nominal conc. 20 nM): 8.05%
Three freeze-thaw cycles (-80 °C ↔ 23 °C), Mean±SD ([3]; nominal conc. 20 nM): 20.11 ± 1.97 nM
Three freeze-thaw cycles (-80 °C ↔ 23 °C), RE ([3]; nominal conc. 20 nM): -9.75%
At -80 °C for 48 h, Mean±SD ([3]; nominal conc. 100 nM): 106.76 ± 6.22 nM
At -80 °C for 48 h, RE ([3]; nominal conc. 100 nM): 13.15%
Extracted samples at 8 °C for 18 h, Mean±SD ([3]; nominal conc. 100 nM): 95.18 ± 2.64 nM
Extracted samples at 8 °C for 18 h, RE ([3]; nominal conc. 100 nM): -7.17%
Short-term stability at room temperature for 6 h, Mean±SD ([3]; nominal conc. 100 nM): 100.30 ± 2.84 nM
Short-term stability at room temperature for 6 h, RE ([3]; nominal conc. 100 nM): 3.05%
Three freeze-thaw cycles (-80 °C ↔ 23 °C), Mean±SD ([3]; nominal conc. 100 nM): 104.44 ± 12.01 nM
Three freeze-thaw cycles (-80 °C ↔ 23 °C), RE ([3]; nominal conc. 100 nM): 14.16%
At -80 °C for 48 h, Mean±SD ([3]; nominal conc. 400 nM): 394.46 ± 17.47 nM
At -80 °C for 48 h, RE ([3]; nominal conc. 400 nM): -6.06%
Extracted samples at 8 °C for 18 h, Mean±SD ([3]; nominal conc. 400 nM): 402.13 ± 26.43 nM
Extracted samples at 8 °C for 18 h, RE ([3]; nominal conc. 400 nM): 7.87%
Short-term stability at room temperature for 6 h, Mean±SD ([3]; nominal conc. 400 nM): 420.24 ± 21.99 nM
Short-term stability at room temperature for 6 h, RE ([3]; nominal conc. 400 nM): 11.33%
Three freeze-thaw cycles (-80 °C ↔ 23 °C), Mean±SD ([3]; nominal conc. 400 nM): 415.19 ± 9.89 nM
Three freeze-thaw cycles (-80 °C ↔ 23 °C), RE ([3]; nominal conc. 400 nM): 5.94%
clearance [4, 5]: 0.0263 mL/min
Vd [4, 6]: 0.00985 ± 0.00247 L
clearance ([4]; plasma, rat, Kang-Ai injection 6 mL/kg iv): 1.58 mL/h/kg
Vd ([4]; plasma, rat, Kang-Ai injection 6 mL/kg iv, read-out: VSS (Vd)): 0.00985 L/kg
AUC(0-t) ([4]; rat, plasma, iv, 6 mL/kg, rat plasma, 30-min iv infusion of Kang-Ai injection 6 mL/kg, unit per footnote # for matrine and oxymatrine, read-out: AUC0–12h): 68.6 ± 9.85 µM·h
half-life [4, 7]: 260 ± 131 min
Cmax ([4]; rat plasma, 30-min iv infusion of Kang-Ai injection 6 mL/kg, unit per footnote # for matrine and oxymatrine): 15.1 ± 3.58 µM

CC(C)=CCC[C@](C)(O[C@@H]1O[C@H](CO)[C@@H](O)[C@H](O)[C@H]1O)[C@H]1CC[C@]2(C)[C@@H]1[C@H](O)C[C@@H]1[C@@]3(C)CC[C@H](O)C(C)(C)[C@@H]3[C@@H](O[C@@H]3O[C@H](CO)[C@@H](O)[C@H](O)[C@H]3O[C@@H]3O[C@@H](C)[C@H](O)[C@@H](O)[C@H]3O)C[C@]12C [Compound C9, Ginsenoside Re]
IC50 (CYP2A6; recombinant isozyme, mean ± SD of triplicate, unit not given (IC50 classes in μM), read-out: IC50 towards CYP2A6): > 100 µM
IC50 (CYP2C9; recombinant isozyme, mean ± SD of triplicate, unit not given (IC50 classes in μM), read-out: IC50 towards CYP2C9): > 100 µM
CL renal [1]: 0.767 mL/min
fe-U,0–12h (fraction of dose excreted into urine) [1]: 29.54 ± 6.03%
fraction of dose excreted unchanged via renal plus hepatobiliary excretion (sum of fe-U and fe-B) [1]: ~60%
fe-B,0–12h (fraction of dose excreted into bile) [2]: 28.27 ± 4.16%
IC50 (CYP3A4; recombinant isozyme, mean ± SD of triplicate, unit not given (IC50 classes in μM), read-out: IC50 towards CYP3A4): > 100 µM
At -80 °C for 48 h, Mean±SD ([3]; nominal conc. 40 nM): 37.07 ± 2.41 nM
At -80 °C for 48 h, RE ([3]; nominal conc. 40 nM): -12.37%
Extracted samples at 8 °C for 18 h, Mean±SD ([3]; nominal conc. 40 nM): 39.68 ± 3.10 nM
Extracted samples at 8 °C for 18 h, RE ([3]; nominal conc. 40 nM): -8.46%
Short-term stability at room temperature for 6 h, Mean±SD ([3]; nominal conc. 40 nM): 42.26 ± 4.77 nM
Short-term stability at room temperature for 6 h, RE ([3]; nominal conc. 40 nM): 12.91%
Three freeze-thaw cycles (-80 °C ↔ 23 °C), Mean±SD ([3]; nominal conc. 40 nM): 39.18 ± 1.53 nM
Three freeze-thaw cycles (-80 °C ↔ 23 °C), RE ([3]; nominal conc. 40 nM): -5.32%
At -80 °C for 48 h, Mean±SD ([3]; nominal conc. 200 nM): 181.77 ± 7.39 nM
At -80 °C for 48 h, RE ([3]; nominal conc. 200 nM): -12.74%
Extracted samples at 8 °C for 18 h, Mean±SD ([3]; nominal conc. 200 nM): 193.91 ± 26.18 nM
Extracted samples at 8 °C for 18 h, RE ([3]; nominal conc. 200 nM): -12.50%
Short-term stability at room temperature for 6 h, Mean±SD ([3]; nominal conc. 200 nM): 175.60 ± 2.61 nM
Short-term stability at room temperature for 6 h, RE ([3]; nominal conc. 200 nM): -13.13%
Three freeze-thaw cycles (-80 °C ↔ 23 °C), Mean±SD ([3]; nominal conc. 200 nM): 205.17 ± 19.51 nM
Three freeze-thaw cycles (-80 °C ↔ 23 °C), RE ([3]; nominal conc. 200 nM): 11.83%
At -80 °C for 48 h, Mean±SD ([3]; nominal conc. 800 nM): 836.79 ± 51.65 nM
At -80 °C for 48 h, RE ([3]; nominal conc. 800 nM): 10.56%
Extracted samples at 8 °C for 18 h, Mean±SD ([3]; nominal conc. 800 nM): 827.44 ± 80.86 nM
Extracted samples at 8 °C for 18 h, RE ([3]; nominal conc. 800 nM): 12.75%
Short-term stability at room temperature for 6 h, Mean±SD ([3]; nominal conc. 800 nM): 724.25 ± 14.79 nM
Short-term stability at room temperature for 6 h, RE ([3]; nominal conc. 800 nM): -11.32%
Three freeze-thaw cycles (-80 °C ↔ 23 °C), Mean±SD ([3]; nominal conc. 800 nM): 818.48 ± 84.93 nM
Three freeze-thaw cycles (-80 °C ↔ 23 °C), RE ([3]; nominal conc. 800 nM): 12.80%
clearance [4, 5]: 2.61 mL/min
Vd [4, 6]: 0.101 ± 0.027 L
Cmax [4, 7]: 1.34 ± 0.0881 µM
half-life [4, 7]: 64.2 ± 50.4 min
